Assay results as given in patent publication US10385065B2, “Antibacterial compounds” (priority 2014, dated 2019).
≈ marks a conversion by molar mass, not a printed value. Like-named read-outs stand apart in the source and are kept apart here.

Assays:
Assay type in all cases: cell-based
[1] = system: Staphylococcus aureus ATCC 29213; experiment: MIC, broth microdilution, S. aureus ATCC 29213
[2] = system: Escherichia coli ATCC 25922; experiment: MIC, broth microdilution, E. coli ATCC 25922; details: ATCC25922, Table 1, wild type strain
[3] = system: Enterococcus faecium ATCC 19434; experiment: MIC, E. faecium ATCC 19434; details: ATCC19434, Table 2
[4] = system: Haemophilus influenzae ATCC 49247; experiment: MIC, H. influenzae ATCC 49247; details: ATCC49247, Table 4
[5] = ATCC29213, Table 1, wild type strain, read-out: MIC S. aureus ATCC 29213
[6] = ATCC 29213 / MSSA, Table 2, read-out: MIC S. aureus (MSSA) ATCC 29213 CLSI control strain

| SMILES | MIC [1, 5] | MIC [1, 6] | MIC [2] | MIC [3] | MIC [4] |
| --- | --- | --- | --- | --- | --- |
| Cc1c(-c2cc(F)c(N)cc2F)ccc2c3oc(=O)[nH]c3c(=O)n(C3CC3)c12 [Compound 3, 7-(4-amino-2,5-difluoro-phenyl)-5-cyclopropyl-6-methyl-3H-oxazolo[4,5-c]quinoline-2,4-dione] | 1 to 10 µg/mL (≈ 2.61 to 26.1 µM) | 1 to 10 µg/mL (≈ 2.61 to 26.1 µM) | > 100 µg/mL | > 100 µg/mL | 1 to 10 µg/mL (≈ 2.61 to 26.1 µM) |
| Cc1c(-c2cnc(N)cn2)ccc2c3ocnc3c(=O)n(C3CC3)c12 [Compound 6, 7-(5-aminopyrazin-2-yl)-5-cyclopropyl-6-methyl-oxazolo[4,5-c]quinolin-4-one] | 10 to 100 µg/mL (≈ 30 to 300 µM) | 10 to 100 µg/mL (≈ 30 to 300 µM) | > 100 µg/mL | > 100 µg/mL | > 100 µg/mL |
| Cc1c(-c2ccccc2)ccc2c3ocnc3c(=O)n(C3CC3)c12 [Compound 7, 5-cyclopropyl-6-methyl-7-phenyl-oxazolo[4,5-c]quinolin-4-one] | 1 to 10 µg/mL (≈ 3.16 to 31.6 µM) | 1 to 10 µg/mL (≈ 3.16 to 31.6 µM) | > 100 µg/mL | 10 to 100 µg/mL (≈ 31.6 to 316 µM) | 10 to 100 µg/mL (≈ 31.6 to 316 µM) |
| Cc1nc2c(=O)n(C3CC3)c3c(C)c(-c4cnn(C5CNC5)c4)ccc3c2o1 [Compound 12, 7-[1-(azetidin-3-yl)pyrazol-4-yl]-5-cyclopropyl-2,6-dimethyl-oxazolo[4,5-c]quinolin-4-one] | 1 to 10 µg/mL (≈ 2.66 to 26.6 µM) | > 100 µg/mL | 10 to 100 µg/mL (≈ 26.6 to 266 µM) | > 100 µg/mL | 1 to 10 µg/mL (≈ 2.66 to 26.6 µM) |
| Cc1nc2c(=O)n(C3CC3)c3c(C)c(-c4ccc(N)c(F)c4)ccc3c2o1 [Compound 13] | < 1 µg/mL | < 1 µg/mL | > 100 µg/mL | > 100 µg/mL | > 100 µg/mL |
| Cc1nc2c(=O)n(C3CC3)c3c(C)c(-c4cnc(N)nc4)ccc3c2o1 [Compound 16, 7-(2-aminopyrimidin-5-yl)-5-cyclopropyl-2,6-dimethyl-oxazolo[4,5-c]quinolin-4-one] | < 1 µg/mL | 1 to 10 µg/mL (≈ 2.88 to 28.8 µM) | 10 to 100 µg/mL (≈ 28.8 to 288 µM) | 10 to 100 µg/mL (≈ 28.8 to 288 µM) | 10 to 100 µg/mL (≈ 28.8 to 288 µM) |
| Cc1nc2c(=O)n(C3CC3)c3c(C)c(-c4ccc(S(N)(=O)=O)cc4)ccc3c2o1 [Compound 17] | 1 to 10 µg/mL (≈ 2.44 to 24.4 µM) | 1 to 10 µg/mL (≈ 2.44 to 24.4 µM) | 1 to 10 µg/mL (≈ 2.44 to 24.4 µM) | > 100 µg/mL | < 1 µg/mL |
| Cc1nc2c(=O)n(C3CC3)c3c(C)c(-c4cc(F)c(O)cc4F)ccc3c2o1 [Compound 32, 5-cyclopropyl-7-(2,5-difluoro-4-hydroxy-phenyl)-2,6-dimethyl-oxazolo[4,5-c]quinolin-4-one] | < 1 µg/mL | < 1 µg/mL | 1 to 10 µg/mL (≈ 2.62 to 26.2 µM) | 10 to 100 µg/mL (≈ 26.2 to 262 µM) | 1 to 10 µg/mL (≈ 2.62 to 26.2 µM) |
| Cc1nc2c(=O)n(C3CC3)c3c(C)c(-c4cnc(C(C)(C)O)nc4)ccc3c2o1 [Compound 37, 5-cyclopropyl-7-[2-(2-hydroxypropan-2-yl)pyrimidin-5-yl]-2,6-dimethyl-oxazolo[4,5-c]quinolin-4-one] | 10 to 100 µg/mL (≈ 25.6 to 256 µM) | 10 to 100 µg/mL (≈ 25.6 to 256 µM) | > 100 µg/mL | > 100 µg/mL | 10 to 100 µg/mL (≈ 25.6 to 256 µM) |
| CC(=O)c1ccc(-c2ccc3c4ocnc4c(=O)n(C4CC4)c3c2C)nc1 [Compound 42, 7-(5-acetylpyridin-2-yl)-5-cyclopropyl-6-methyl-oxazolo[4,5-c]quinolin-4-one] | 10 to 100 µg/mL (≈ 27.8 to 278 µM) | 10 to 100 µg/mL (≈ 27.8 to 278 µM) | > 100 µg/mL | > 100 µg/mL | > 100 µg/mL |
| Cc1c(-c2cnoc2)ccc2c3ocnc3c(=O)n(C3CC3)c12 [Compound 43, 5-cyclopropyl-6-methyl-7-(1,2-oxazol-4-yl)-oxazolo[4,5-c]quinolin-4-one] | 1 to 10 µg/mL (≈ 3.25 to 32.5 µM) | 1 to 10 µg/mL (≈ 3.25 to 32.5 µM) | 10 to 100 µg/mL (≈ 32.5 to 325 µM) | > 100 µg/mL | 10 to 100 µg/mL (≈ 32.5 to 325 µM) |
| Cc1c(-c2ccc3[nH]nnc3c2)ccc2c3ocnc3c(=O)n(C3CC3)c12 [Compound 44, 7-(1H-1,2,3-benzotriazol-5-yl)-5-cyclopropyl-6-methyl-oxazolo[4,5-c]quinolin-4-one] | > 100 µg/mL | > 100 µg/mL | > 100 µg/mL | > 100 µg/mL | > 100 µg/mL |
| Cc1c(-c2ccc(O)cn2)ccc2c3ocnc3c(=O)n(C3CC3)c12 [Compound 45, 5-cyclopropyl-7-(5-hydroxypyridin-2-yl)-6-methyl-oxazolo[4,5-c]quinolin-4-one] | 10 to 100 µg/mL (≈ 30 to 300 µM) | 10 to 100 µg/mL (≈ 30 to 300 µM) | > 100 µg/mL | > 100 µg/mL | 10 to 100 µg/mL (≈ 30 to 300 µM) |
| Cc1c(-c2cc(F)c(C(=O)O)cc2F)ccc2c3ocnc3c(=O)n(C3CC3)c12 [Compound 47, 4-{5-cyclopropyl-6-methyl-4-oxo-oxazolo[4,5-c]quinolin-7-yl}-2,5-difluorobenzoic acid] | 10 to 100 µg/mL (≈ 25.2 to 252 µM) | 10 to 100 µg/mL (≈ 25.2 to 252 µM) | > 100 µg/mL | > 100 µg/mL | > 100 µg/mL |
| Cc1nc2c(=O)n(C3CC3)c3cc(N4CCCC(N)C4)c(F)cc3c2o1 (stereo not shown) [Compound 51, 7-(3-aminopiperidin-1-yl)-5-cyclopropyl-8-fluoro-2-methyl-oxazolo[4,5-c]quinolin-4-one] | 1 to 10 µg/mL (≈ 2.81 to 28.1 µM) | 1 to 10 µg/mL (≈ 2.81 to 28.1 µM) | 1 to 10 µg/mL (≈ 2.81 to 28.1 µM) | 10 to 100 µg/mL (≈ 28.1 to 281 µM) | 1 to 10 µg/mL (≈ 2.81 to 28.1 µM) |
| Cc1nc2c(=O)n(C3CC3)c3cc(N4CCC(O)C4)c(F)cc3c2o1 (stereo not shown) [Compound 53, 5-cyclopropyl-8-fluoro-7-(3-hydroxypyrrolidin-1-yl)-2-methyl-oxazolo[4,5-c]quinolin-4-one] | 10 to 100 µg/mL (≈ 29.1 to 291 µM) | 10 to 100 µg/mL (≈ 29.1 to 291 µM) | 10 to 100 µg/mL (≈ 29.1 to 291 µM) | > 100 µg/mL | 1 to 10 µg/mL (≈ 2.91 to 29.1 µM) |
| O=c1c2ncoc2c2cc(F)c(-c3ccncc3Cl)cc2n1C1CC1 [Compound 59, 7-(3-chloro-4-pyridyl)-5-cyclopropyl-8-fluoro-oxazolo[4,5-c]quinolin-4-one] | 1 to 10 µg/mL (≈ 2.81 to 28.1 µM) | 1 to 10 µg/mL (≈ 2.81 to 28.1 µM) | 10 to 100 µg/mL (≈ 28.1 to 281 µM) | > 100 µg/mL | 1 to 10 µg/mL (≈ 2.81 to 28.1 µM) |
| O=c1c2ncoc2c2cc(F)c(-c3ccc(C(F)(F)F)nc3)cc2n1C1CC1 [Compound 60, 5-cyclopropyl-8-fluoro-7-[6-(trifluoromethyl)-3-pyridyl]oxazolo[4,5-c]quinolin-4-one] | 10 to 100 µg/mL (≈ 25.7 to 257 µM) | 10 to 100 µg/mL (≈ 25.7 to 257 µM) | > 100 µg/mL | > 100 µg/mL | 1 to 10 µg/mL (≈ 2.57 to 25.7 µM) |
| CCOC(=O)c1ccc(-c2cc3c(cc2F)c2ocnc2c(=O)n3C2CC2)cc1 [Compound 61, ethyl 4-(5-cyclopropyl-8-fluoro-4-oxo-oxazolo[4,5-c]quinolin-7-yl)benzoate] | > 100 µg/mL | > 100 µg/mL | > 100 µg/mL | > 100 µg/mL | > 100 µg/mL |
| Nc1ncc(-c2cc3c(cc2F)c2ocnc2c(=O)n3C2CC2)cn1 [Compound 62, 7-(2-aminopyrimidin-5-yl)-5-cyclopropyl-8-fluoro-oxazolo[4,5-c]quinolin-4-one] | 1 to 10 µg/mL (≈ 2.96 to 29.6 µM) | 1 to 10 µg/mL (≈ 2.96 to 29.6 µM) | 10 to 100 µg/mL (≈ 29.6 to 296 µM) | > 100 µg/mL | 1 to 10 µg/mL (≈ 2.96 to 29.6 µM) |
| COc1ccc(-c2cc3c(cc2F)c2ocnc2c(=O)n3C2CC2)cc1 [Compound 63, 5-cyclopropyl-8-fluoro-7-(4-methoxyphenyl)oxazolo[4,5-c]quinolin-4-one] | > 100 µg/mL | > 100 µg/mL | > 100 µg/mL | > 100 µg/mL | > 100 µg/mL |
| N#Cc1c(F)cc(-c2cc3c(cc2F)c2ocnc2c(=O)n3C2CC2)cc1F [Compound 65, 4-(5-cyclopropyl-8-fluoro-4-oxo-oxazolo[4,5-c]quinolin-7-yl)-2,6-difluoro-benzonitrile] | 1 to 10 µg/mL (≈ 2.62 to 26.2 µM) | 1 to 10 µg/mL (≈ 2.62 to 26.2 µM) | > 100 µg/mL | > 100 µg/mL | 10 to 100 µg/mL (≈ 26.2 to 262 µM) |
| CN(C)C(=O)c1ccc(-c2cc3c(cc2F)c2ocnc2c(=O)n3C2CC2)cc1 [Compound 66, 4-(5-cyclopropyl-8-fluoro-4-oxo-oxazolo[4,5-c]quinolin-7-yl)-N,N-dimethyl-benzamide] | 1 to 10 µg/mL (≈ 2.55 to 25.5 µM) | 1 to 10 µg/mL (≈ 2.55 to 25.5 µM) | > 100 µg/mL | > 100 µg/mL | 10 to 100 µg/mL (≈ 25.5 to 255 µM) |
| CNC(=O)c1ccc(-c2cc3c(cc2F)c2ocnc2c(=O)n3C2CC2)cc1F [Compound 67, 4-(5-cyclopropyl-8-fluoro-4-oxo-oxazolo[4,5-c]quinolin-7-yl)-2-fluoro-N-methyl-benzamide] | 1 to 10 µg/mL (≈ 2.53 to 25.3 µM) | 1 to 10 µg/mL (≈ 2.53 to 25.3 µM) | > 100 µg/mL | > 100 µg/mL | 10 to 100 µg/mL (≈ 25.3 to 253 µM) |
| O=c1c2ncoc2c2cc(F)c(-c3cc(F)c(CO)cc3F)cc2n1C1CC1 [Compound 68, 5-cyclopropyl-7-[2,5-difluoro-4-(hydroxymethyl)phenyl]-8-fluoro-oxazolo[4,5-c]quinolin-4-one] | < 1 µg/mL | < 1 µg/mL | 1 to 10 µg/mL (≈ 2.59 to 25.9 µM) | > 100 µg/mL | < 1 µg/mL |
| Nc1ccc(-c2cc3c(cc2F)c2ocnc2c(=O)n3C2CC2)cn1 [Compound 70, 7-(6-amino-3-pyridyl)-5-cyclopropyl-8-fluoro-oxazolo[4,5-c]quinolin-4-one] | 10 to 100 µg/mL (≈ 29.7 to 297 µM) | 10 to 100 µg/mL (≈ 29.7 to 297 µM) | > 100 µg/mL | > 100 µg/mL | > 100 µg/mL |
| Cc1nc2c(=O)n(C3CC3)c3cc(-c4ccc(C=O)cc4)c(F)cc3c2o1 [Compound 72, 4-(5-cyclopropyl-8-fluoro-2-methyl-4-oxo-oxazolo[4,5-c]quinolin-7-yl)benzaldehyde] | 10 to 100 µg/mL (≈ 27.6 to 276 µM) | 10 to 100 µg/mL (≈ 27.6 to 276 µM) | > 100 µg/mL | > 100 µg/mL | 1 to 10 µg/mL (≈ 2.76 to 27.6 µM) |
| Cc1nc2c(=O)n(C3CC3)c3cc(-c4ccc5[nH]ncc5c4)c(F)cc3c2o1 [Compound 73, 5-cyclopropyl-8-fluoro-7-(1H-indazol-5-yl)-2-methyl-oxazolo[4,5-c]quinolin-4-one] | < 1 µg/mL | < 1 µg/mL | > 100 µg/mL | > 100 µg/mL | 1 to 10 µg/mL (≈ 2.67 to 26.7 µM) |
| Cc1nc2c(=O)n(C3CC3)c3c(Cl)c(N4CCC(CN)C4)c(F)cc3c2o1 (stereo not shown) [Compound 110, 7-[3-(aminomethyl)pyrrolidin-1-yl]-6-chloro-5-cyclopropyl-8-fluoro-2-methyl-oxazolo[4,5-c]quinolin-4-one] | < 1 µg/mL |  | < 1 µg/mL |  |  |
